Reference: patent US10399986B2, “Inhibitors of leukotriene A4 hydrolase” (CELTAXSYS, INC., priority 2013, dated 2019)
Where “and” joins values, the source holds several entries; their conditions need not be identical. Equal values may be shown once. Read-outs that look alike come from different tables or passages of the source.

Assays:
LTA4-h [1] = biological target: T1, LTA4-h (Homo sapiens, UniProt P09960); test: hydrolase assay; format: biochemical
T1 sequence (P09960 1-611): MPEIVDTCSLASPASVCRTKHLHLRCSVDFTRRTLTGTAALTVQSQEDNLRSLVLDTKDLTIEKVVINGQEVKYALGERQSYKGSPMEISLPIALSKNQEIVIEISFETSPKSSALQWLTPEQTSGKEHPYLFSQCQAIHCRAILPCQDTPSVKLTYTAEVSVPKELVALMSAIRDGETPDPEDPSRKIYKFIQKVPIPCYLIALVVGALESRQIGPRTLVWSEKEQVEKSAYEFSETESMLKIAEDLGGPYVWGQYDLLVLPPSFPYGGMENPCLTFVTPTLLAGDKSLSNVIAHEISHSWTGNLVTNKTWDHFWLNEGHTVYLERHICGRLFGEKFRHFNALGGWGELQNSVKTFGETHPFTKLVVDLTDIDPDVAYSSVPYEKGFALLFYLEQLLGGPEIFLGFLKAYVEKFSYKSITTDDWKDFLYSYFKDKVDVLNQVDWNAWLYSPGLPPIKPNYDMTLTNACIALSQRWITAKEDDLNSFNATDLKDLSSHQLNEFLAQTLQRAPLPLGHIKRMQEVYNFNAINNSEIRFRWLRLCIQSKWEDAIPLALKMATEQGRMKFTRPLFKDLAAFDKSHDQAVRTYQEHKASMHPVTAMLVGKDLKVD
Description: The compounds of the invention can be tested for their ability to inhibit LTA4-h by various known assays and by assays described herein. For example, the compounds can be tested for their ability to inhibit LTA4-h activity by assaying the compounds in the hydrolase-homogeneous time resolved fluorescence assay. This assay, which is a two-step assay, measures the hydrolysis of […] by analyzing the amount of LTB4 produced. The first step involves the enzymatic conversion of […] and the second step involves the quantification of the […] formed with a homogeneous time resolved fluorescence assay.
(§1) The whole blood and aminopeptidase assays were performed as described in Penning et al., J. Med. Chem. 2000, 43, 721-735, and Rudberg et al., J. Biol. Chem. Vol. 279, No. 26, Issue of June 25, pp. 27376-27382, 2004, the contents of each of which are expressly incorporated by reference herein. The hydrolase assay was performed as described in U.S. Pat. No. 7,737,145, the contents of which are expressly incorporated herein.

LTA4-h [2] = biological target: T1, LTA4-h; test: peptidase (aminopeptidase) assay; format: biochemical
Description: Since LTA4-h hydrolase is grouped with the M1 family of zinc metalloproteases (see, Rudberg, P. C. et al., J. Biol. Chem. 2002, Vol. 277, page 1398-1404), the compounds of the invention can be tested in the standard hydrolase and peptidase assay to determine the compounds' kinetic constants for binding to LTA4-h hydrolase and for inhibiting LTB4 synthesis (see Askonas, L. J., et al., The Journal of Pharmacology and Experimental Therapeutics 2002, 300(2): 577-582; Penning, T. D., J. Med. Chem. 2000, 43(4): 721-735; Kull, F. et al., The Journal of Biological Chemistry 1999, 274 (49): 34683-34690, the contents of which are expressly incorporated by reference herein).
as §1

LTA4-h hydrolase = biological target: T2, LTA4-h hydrolase (Homo sapiens, UniProt P09960); test: whole blood assay (WBA); format: cell-based
T2 construct: whole blood assay using human, mouse, rat or dog whole blood; from tissue; host or cells: whole blood
T2 sequence (P09960 1-611): T1 sequence (P09960 1-611)
Protocol: Compounds of the invention can also be tested for their ability as inhibitors of LTA4-h hydrolase in the whole blood assay using human, mouse, rat or dog whole blood (see Penning, T. D. et al., J. Med. Chem. (2000), 43(4): 721-735 for a description of a human whole blood assay and a mouse whole blood assay, the contents of which are expressly incorporated herein).
as §1

[3] = test system: ionophore-induced LTB4 production; conditions: oral administration; rat peritoneum in vivo; cited from earlier work
cotton top tamarins = conditions: eight weeks of treatment; cited from earlier work
[4] = test system: ionophore-induced LTB4 production; conditions: oral administration; mouse blood ex vivo; cited from earlier work

Row | Compound | IC50 (LTA4-h [2]) | IC50 (LTA4-h [1]) | IC50 (LTA4-h hydrolase) | further results
1 | 2-(4-phenoxyphenylamino)-3-cyano-6-(2-nitro-3-hydroxycarboxyphenyl)pyrazolo[1,5-a]pyrimidine [Compound 9] | 3.3 nM | – | – | Hydrolase % inhibition (LTA4-h [1]; at 1 uM): 20% inhibition at 1 uM
2 | N#Cc1c(Nc2ccc(Oc3ccccc3)cc2)nn2cc(N)cnc12 [Compound 1] | 280 nM | 1500 nM | > 8800 nM | –
3 | CS(=O)(=O)c1ccc(-c2cnc3c(C#N)c(Nc4ccc(Oc5ccccc5)cc4)nn3c2)c([N+](=O)[O-])c1 [Compound 2] | 260 nM | 3700 nM | > 7200 nM | –
4 | N#Cc1c(Nc2ccc(Oc3ccccc3)cc2)nn2cc(-c3cc(C(=O)O)ccc3[N+](=O)[O-])cnc12 [Compound 3] | 430 nM | – | > 10000 nM | inhibition at 3 µM (LTA4-h [1]): 39%
5 | N#Cc1c(Nc2ccc(Oc3ccccc3)cc2)nn2cc(C(=O)c3cc([N+](=O)[O-])ccc3O)cnc12 [Compound 4] | 1700 nM | – | – | inhibition at 3 µM (LTA4-h [1]): 48%
6 | N#Cc1c(Nc2ccc(Oc3ccccc3)cc2)nn2cc(C(=O)c3ccccc3O)cnc12 [Compound 5] | 90 nM and 20 nM | 1400 nM and 490 nM | 4900 nM and 3000 nM | –
7 | N#Cc1c(Nc2ccc(Oc3ccccc3)cc2)nn2cc(C(=O)c3cc(Cl)cc(Cl)c3O)cnc12 [Compound 6] | 960 nM | – | – | inhibition at 3 µM (LTA4-h [1]): 15%
8 | N#Cc1c(Nc2ccc(Oc3ccccc3)cc2)nn2cc(C(=O)c3cc(Cl)ccc3O)cnc12 [Compound 7] | 30 nM and 10 nM | 1600 nM and 2900 nM | 4600 nM and 3000 nM | –
9 | N#Cc1c(Nc2ccc(Oc3ccccc3)cc2)nn2cc(-c3ccc(C(=O)O)cc3[N+](=O)[O-])cnc12 [Compound 10] | 120 nM | – | – | inhibition at 1 µM (LTA4-h [1]; at 1 uM): 20%
10 | N#Cc1c(Nc2ccc(Oc3ccccc3)cc2)nn2cc(-c3cccc(C(=O)O)n3)cnc12 [Compound 11] | 270 nM | – | – | –
11 | N#Cc1c(Nc2ccc(Oc3ccccc3)cc2)nn2cc(-c3ccc(C(=O)O)cn3)cnc12 [Compound 12] | 84 nM | – | – | –
12 | CN(CCCOc1ccc(Cc2ccccc2)cc1)CCC(=O)O.Cl [SC57461] | – | – | – | inhibition of ionophore-induced LTB4 production [3]: caused inhibition; colitis symptoms (cotton top tamarins): significantly improved colitis symptoms; inhibition of ionophore-induced LTB4 production [4]: caused inhibition
